Test results from patent publication US7985536B2, “Method for regulating NO production in an isolated organ or tissue during warm perfusion” (priority 1999, dated 2011).
Where “and” joins values, the source holds several entries; their conditions need not be identical. Equal values may be shown once.

Tests used:
human kidneys = assay: Vasodilation in human kidneys perfused ex vivo, 12 hours
Method: Human kidneys were perfused ex vivo in order to evaluate the continued function of NOS in the formation of a continual flux of NO. • Group 1—Kidneys perfused with the solution and process of the invention, n=2 • Group 2—Kidneys perfused with heparinized blood with the pharmacologic agent, nitroprusside added at doses of 1.0, 10.0 and 100.0 mg, n=2
The ability to vasodilate and sustain stable perfusion pressures was determined in both groups during 12 hours of ex vivo perfusion.

canine kidneys [1] = assay: CoPP in the perfusate during EMS perfusion: kidney metabolism and function
Method: (§1) Test group (n=3) canine kidneys were excised, cannulated, flushed of blood with EMS perfusion solution and placed on EMS perfusion at 32° C.-34° C. for 6 hours with either 5, 25 or 50 uM cobalt protoporphyrin (CoPP) added to the perfusate. Metabolic and functional evaluations consisted of quantification of the ex vivo kidney function during the period of HO-1 induction. Using the EMS technology, kidneys were maintained in a metabolically active state by perfusion at near physiologic temperature. Kidneys weighing approximately 70-90 gm were procured following brain death with concomitant warm ischemia of no more than 15 minutes. The kidneys were then transitioned to EMS perfusion at 32° C. to 34° C. The kidneys were evaluated for oxidative metabolism, vascular dynamics and organ function. The organ parameters were allowed to stabilize for one hour prior to the evaluation of function. Samples from the arterial and venous lines were collected, along with the urine produced during the perfusions. PO2 measurements for the arterial and venous samples were made with a Radiometer ABL5.
Oxygen consumption was calculated as: ml/min/gm=(PO2 artery−PO2 venous)×(flow rate).
The vascular resistance was calculated as: vasc resis=mean arterial pressure/mean flow rate
Creatinine was added to the perfusate as a tracer. The urine made during the EMS perfusions at 32° C. to 34° C. was collected and tested. The concentration of creatinine was measured on an IDEXX Vet Lab chemistry analyzer and the glomerular filtration rate (GFR) was calculated as: […]

hemeoxygenase-1 (HO-1) = assay: Up-regulation of hemeoxygenase-1 by CoPP during EMS perfusion; parameters: species or system canine; conditions: individual kidneys
Method: EMS perfusion can be used to deliver a drug to an organ, section of anatomy or tissue in a targeted fashion. In addition, during any procedure the EMS supported ongoing metabolism and function can be monitored providing a mechanism to quantify the impact of the drug and any corresponding cellular response to it. For example, a compound known to cause the up-regulation of the heat-shock protein, hemeoxygenase-1 was administered to an isolated kidney being perfused in accordance with the technology of the present invention. The EMS technology provided adequate support of renal metabolism and function during ex vivo perfusion to increase expression of the hemeoxygenase-1 (HO-1) enzyme within six hours.
as §1, with “Metabolic” for “Test group (n=3) canine kidneys were excised, cannulated, flushed of blood with EMS perfusion solution and placed on EMS perfusion at 32° C.-34° C. for 6 hours with either 5, 25 or 50 uM cobalt protoporphyrin (CoPP) added to the perfusate. Metabolic”

canine kidneys [2] = assay: CoPP in the perfusate during EMS perfusion: kidney metabolism and function; conditions: for F.R. (vascular flow rate) / GFR (glomerular filtration rate) / MAP (mean arterial pressure) / Urinary Protein / Urine Flow / Vasc Res (vascular resistance) / 02 Cons (oxygen consumption): n = 2, mean
isolated canine kidneys = assay: Nitric oxide flux in isolated canine kidneys, 48 hour perfusion; conditions: for mean NO3 accumulation in the perfusion solution: following 48 hours, ion chromatograph, mean±standard deviation; for net weight gain (edema): isolated canine kidneys, L-NAME and L-NIL 100 μM added to the perfusion solution
Method: Kidneys were perfused with the perfusion solution and process described above for 48 hours.
The concentration of nitrate in the solution was determined by analysis on a Dionex DX-500 ion chromatograph using an AS-15 column and KOH eluant that varied in concentration by a programmed gradient. Alternatively, an electrode can be utilized to monitor NO flux in stream. All samples were analyzed in duplicate and were diluted by a factor of 11 and the values expressed as the mean±standard deviation for the kidneys perfused with the solution of the invention or control kidneys perfused with RPMI medium.

iNOS = conditions: cited from earlier work
canine kidneys [3] = assay: Endothelial-dependent vasodilation by acetylcholine in perfused canine kidneys; conditions: acetylcholine 1.0 mg; kidneys perfused with the solution of the invention
Method: Canine kidneys were tested for the ability to produce NO by induction with acetylcholine at a concentration of 1.0, 10.0 or 100 mg. The acetylcholine was administered to the perfusion path of kidneys using the solution and process of this invention and also in control kidneys that were perfused with RPMI medium alone.

canine kidneys [4] = assay: Nitrate accumulation and acetylcholine vasodilation after 30 minutes warm ischemia and 18 hours perfusion; conditions: One mg of acetylcholine
canine kidneys [5] = assay: Regulation of NO flux by titrating L-arginine (nitrite, electrochemical detection)
Method: It is desirable to control the flux of NO in tissues, limbs and organs while they are deprived of physiologic blood flow. In certain clinical situations such as the case of septic shock it may be necessary to inhibit the production of NO. Therefore, the ability to regulate the production of NO was evaluated using the solution and process of the present invention. The production of NO was monitored using electrochemical detection using a carbon-modified anode in stream. Oxidation of NO transfers electrons from NO to the anode generating nitrosonium cation that is converted to nitrite as follows: NO→NO+→HONO→NO2^− Canine kidneys were perfused with the solution of the invention without L-arginine. The substrate L-arginine was added to the perfusion path separately to measure the ability to control NO production.
Controls consisted of kidneys perfused with L-Name to inhibit NOS function and kidneys perfused with the solution and process of the present invention but without L-arginine.

kidneys [6] = assay: Control of NO3 production around a target during 48 hours perfusion
Method: Kidneys were perfused for 48 hours and during the perfusion the kidneys were monitored every 4 hours for the concentration of NO3^− in the circulation. Alternatively, NO concentration can be evaluated by measuring NO directly using an electrode or by measurement of the decrease in concentration of the substrate such as L-arginine. […] The perfusate was exchanged at the rate of 20% v/v every 4 hours with the concentration of L-arginine varying to control the production of NO.

kidneys [7] = assay: In situ kidney perfusion during operative procedure, serum creatinine 24 hours posttreatment; format: in vivo; conditions: six hours in situ acellular perfusion, n = 2, L-NAME 100 uM
Excerpt: The ability to control NOS function during in situ perfusion was observed by placement of cannulas in the aorta above the renal arteries and in the vena cava below the renal veins. In this manner, the renal vasculature could be isolated from vascular blood flow during surgical procedures repairing aortic aneurysm. The kidneys were perfused with the solution of the present invention by opening the perfusion circuit until the blood was flushed from the kidneys. The circuit was then closed and the kidneys perfused acellularly until the end of the surgical procedure and reflow of blood was restored. The cannulas were removed, the incision in the aorta and vena cava closed and blood flow reinstated. During six hours of acellular perfusion the concentration of NO3-was determined every 2 hours and the concentration of L-arginine was adjusted to control the NO flux around the set range using the method described above. Following reperfusion with vascular blood flow, the renal function was evaluated 24 hours posttreatment by determining the serum creatinine (SCR) concentration. Controls consisted of kidneys perfused without L-arginine and kidneys perfused with the addition of L-NAME (100 uM).

## nitroprusside
Human kidneys; nitroprusside 1.0 mg, heparinized blood perfusion
  decrease in the mean arterial pressures: did not lead to an appreciable decrease
Human kidneys; nitroprusside 10.0 mg, heparinized blood perfusion
  decrease in the mean arterial pressures: 6 mmHg
Human kidneys; nitroprusside 100 mg, excessive vascular flow associated with renal damage
  decrease in the mean arterial pressures: profound decrease

## C=CC1=C(C)c2cc3[n-]c(cc4nc(cc5[n-]c(cc1n2)c(C)c5CCC(=O)[O-])C(CCC(=O)[O-])=C4C)c(C)c3C=C.[Co+2].[H+].[H+] [CoPP, cobalt protoporphyrin]
Canine kidneys [1]; CoPP 50 μM
  inhibition of the GFR: 91%
Canine kidneys [1]; CoPP increased from 5 to 25 μM
  reduction of urine flow: 66%
Canine kidneys [1]; CoPP increased to 50 μM
  reduction of urine flow: > 90%
hemeoxygenase-1 (HO-1); 5 μM CoPP
  Hemeoxygenase-1, CoPP induction during EMS perfusion: 9.6 IU and 13.2 IU
hemeoxygenase-1 (HO-1); 10 μM CoPP
  Hemeoxygenase-1, CoPP induction during EMS perfusion: 16.3 IU and 13.4 IU
hemeoxygenase-1 (HO-1); 25 μM CoPP
  Hemeoxygenase-1, CoPP induction during EMS perfusion: 16.1 IU and 16.7 IU
hemeoxygenase-1 (HO-1); 50 μM CoPP
  Hemeoxygenase-1, CoPP induction during EMS perfusion: 15.2 IU and 14.7 IU
Canine kidneys [2]; 5 uM CoPP
  F.R. (vascular flow rate): 114 cc/min
  GFR (glomerular filtration rate): 7.02 mL/min
  MAP (mean arterial pressure): 47 mmHg
  Urinary Protein: 0.16 gm/dL
  Urine Flow: 6 cc/hr
  Vasc Res (vascular resistance): 0.41
Canine kidneys [2]; 5 uM CoPP, 6 hours EMS perfusion
  02 Cons (oxygen consumption): 0.18 cc/min/gm
Canine kidneys [2]; 25 uM CoPP
  02 Cons (oxygen consumption): 0.23 cc/min/gm
  F.R. (vascular flow rate): 114 cc/min
  GFR (glomerular filtration rate): 2.05 mL/min
  MAP (mean arterial pressure): 47 mmHg
  Urinary Protein: 3.62 gm/dL
  Urine Flow: 2 cc/hr
  Vasc Res (vascular resistance): 0.41
Canine kidneys [2]; 50 uM CoPP
  02 Cons (oxygen consumption): 0.17 cc/min/gm
  F.R. (vascular flow rate): 108 cc/min
  GFR (glomerular filtration rate): 0.6 mL/min
  MAP (mean arterial pressure): 48 mmHg
  Urinary Protein: 3.44 gm/dL
  Urine Flow: 0.5 cc/hr
  Vasc Res (vascular resistance): 0.44
Canine kidneys [2]; CoPP increased from 5 to 25 μM
  reduction of GFR: 71%

## CC(=N)NCCCC[C@H](N)C(=O)O.Cl [L-NIL]
Isolated canine kidneys
  mean NO3 accumulation in the perfusion solution: 0.51 ± 0.2 mg/L
  net weight gain (edema): 206%
iNOS
  selectivity for iNOS in comparison to the constitutive endothelial NOS isoform: approximately 28 fold

## CC(=O)OCC[N+](C)(C)C [acetylcholine]
Canine kidneys [3]
  mean drop in systolic pressures: 20 mmHg
  time to vasodilation after administration: ≤ 5 min
Canine kidneys [4]; Group 1
  time to decrease in mean arterial pressure: ≤ 5 min
Canine kidneys [4]; Group 1, perfusion with the solution of the invention
  decrease in mean arterial pressure: 10 mmHg
Human kidneys; acetylcholine 1.0 mg, Group 1
  decreased perfusion pressure: 8 mmHg
  vascular flow rate after vasodilation: > 150 cc/min

## N=C(N)NCCC[C@H](N)C(=O)O [L-arginine]
Canine kidneys [5]; L-arginine 18 mg, n = 3
  NO2: 1.2 ± 0.1 mg/dL
Canine kidneys [5]; L-arginine 35 mg, n = 3
  NO2: 3.1 ± 0.1 mg/dL
Canine kidneys [5]; L-arginine 70 mg, n = 3
  NO2: 5.8 ± 0.3 mg/dL
Canine kidneys [5]; L-arginine 140 mg, n = 3
  NO2: 11.2 ± 0.5 mg/dL
Kidneys [6]; perfusion time 4 hours, target 200 ug/L/hr+/−10
  NO3: 203 µg/L/h
Kidneys [6]; perfusion time 8 hours
  NO3: 180 µg/L/h
Kidneys [6]; perfusion time 12 hours
  NO3: 205 µg/L/h
Kidneys [6]; perfusion time 16 hours
  NO3: 195 µg/L/h
Kidneys [6]; perfusion time 20 hours
  NO3: 201 µg/L/h
Kidneys [6]; perfusion time 24 hours
  NO3: 210 µg/L/h
Kidneys [6]; perfusion time 28 hours
  NO3: 195 µg/L/h
Kidneys [6]; perfusion time 32 hours
  NO3: 202 µg/L/h
Kidneys [6]; perfusion time 36 hours
  NO3: 210 µg/L/h
Kidneys [6]; perfusion time 40 hours
  NO3: 190 µg/L/h
Kidneys [6]; perfusion time 44 hours
  NO3: 203 µg/L/h
Kidneys [6]; perfusion time 48 hours
  NO3: 209 µg/L/h

## COC(=O)[C@@H](N)CCCNC(=N)N[N+](=O)[O-] [L-NAME, N^6-nitro-L-arginine methyl ester]
Isolated canine kidneys
  mean NO3 accumulation in the perfusion solution: 0.16 ± 0.1 mg/L
  net weight gain (edema): 350%
Canine kidneys [5]; Control, kidneys perfused with L-Name
  NO2: 0.17 ± 0.3 mg/dL
Kidneys [7]
  SCr: 4.2 mg/dL

## C[C@@H]1C[C@H]2[C@@H]3CCC4=CC(=O)C=C[C@]4(C)[C@@]3(F)[C@@H](O)C[C@]2(C)[C@@]1(O)C(=O)CO [dexamethasone]
Isolated canine kidneys
  mean NO3 accumulation in the perfusion solution: 0.18 ± 0.1 mg/L
